Assay results: patent US20260297081A1, “COMPOUNDS AND METHODS OF TREATING CANCERS” (Cullgen Inc., priority 2023, published 2026)

Biological target: CDK4 (Homo sapiens, UniProt P11802+Q16531)
Test: CDK4 percentage degradation in Calu-1 cells (Table 6)
Type: cell-based
Design: Cells that express cyclin D1-3 and CDK4/6 proteins were treated with heterobifunctional compounds; endogenous in cells; host or cells: Calu-1
Conditions: 16 hours; for inhibition at 0.04 µM: 40 nM; for inhibition at 0.2 µM: 200 nM
In short: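 Calu-1 cells exposed to heterobifunctional compounds at 40 nM or 200 nM for 16 h. Cyclin D1 and CDK4 levels measured by Western blot of RIPA lysates (BCA-normalised loading), bands quantified by densitometry and expressed as percentage degradation.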

CDK4, sequence (P11802 2-303 limits assumed): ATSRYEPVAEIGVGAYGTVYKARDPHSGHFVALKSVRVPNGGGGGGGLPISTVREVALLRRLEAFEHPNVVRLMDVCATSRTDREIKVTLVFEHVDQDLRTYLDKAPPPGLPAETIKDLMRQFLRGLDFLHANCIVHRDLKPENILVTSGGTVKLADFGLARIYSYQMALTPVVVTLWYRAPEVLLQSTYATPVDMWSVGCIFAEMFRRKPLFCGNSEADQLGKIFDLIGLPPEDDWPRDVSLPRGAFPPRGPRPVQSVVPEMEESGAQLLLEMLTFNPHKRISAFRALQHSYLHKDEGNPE
CDK4, sequence (P24385 whole entry partner): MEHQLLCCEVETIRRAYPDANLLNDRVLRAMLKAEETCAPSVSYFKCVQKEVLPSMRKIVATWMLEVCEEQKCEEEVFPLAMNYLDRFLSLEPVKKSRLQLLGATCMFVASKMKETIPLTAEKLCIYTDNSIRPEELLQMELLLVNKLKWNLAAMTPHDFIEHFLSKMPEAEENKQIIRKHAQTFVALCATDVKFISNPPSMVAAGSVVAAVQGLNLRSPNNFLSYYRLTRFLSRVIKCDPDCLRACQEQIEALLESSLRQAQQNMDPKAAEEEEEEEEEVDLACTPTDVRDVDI
CDK4, sequence (Q16531 2-1140 limits assumed): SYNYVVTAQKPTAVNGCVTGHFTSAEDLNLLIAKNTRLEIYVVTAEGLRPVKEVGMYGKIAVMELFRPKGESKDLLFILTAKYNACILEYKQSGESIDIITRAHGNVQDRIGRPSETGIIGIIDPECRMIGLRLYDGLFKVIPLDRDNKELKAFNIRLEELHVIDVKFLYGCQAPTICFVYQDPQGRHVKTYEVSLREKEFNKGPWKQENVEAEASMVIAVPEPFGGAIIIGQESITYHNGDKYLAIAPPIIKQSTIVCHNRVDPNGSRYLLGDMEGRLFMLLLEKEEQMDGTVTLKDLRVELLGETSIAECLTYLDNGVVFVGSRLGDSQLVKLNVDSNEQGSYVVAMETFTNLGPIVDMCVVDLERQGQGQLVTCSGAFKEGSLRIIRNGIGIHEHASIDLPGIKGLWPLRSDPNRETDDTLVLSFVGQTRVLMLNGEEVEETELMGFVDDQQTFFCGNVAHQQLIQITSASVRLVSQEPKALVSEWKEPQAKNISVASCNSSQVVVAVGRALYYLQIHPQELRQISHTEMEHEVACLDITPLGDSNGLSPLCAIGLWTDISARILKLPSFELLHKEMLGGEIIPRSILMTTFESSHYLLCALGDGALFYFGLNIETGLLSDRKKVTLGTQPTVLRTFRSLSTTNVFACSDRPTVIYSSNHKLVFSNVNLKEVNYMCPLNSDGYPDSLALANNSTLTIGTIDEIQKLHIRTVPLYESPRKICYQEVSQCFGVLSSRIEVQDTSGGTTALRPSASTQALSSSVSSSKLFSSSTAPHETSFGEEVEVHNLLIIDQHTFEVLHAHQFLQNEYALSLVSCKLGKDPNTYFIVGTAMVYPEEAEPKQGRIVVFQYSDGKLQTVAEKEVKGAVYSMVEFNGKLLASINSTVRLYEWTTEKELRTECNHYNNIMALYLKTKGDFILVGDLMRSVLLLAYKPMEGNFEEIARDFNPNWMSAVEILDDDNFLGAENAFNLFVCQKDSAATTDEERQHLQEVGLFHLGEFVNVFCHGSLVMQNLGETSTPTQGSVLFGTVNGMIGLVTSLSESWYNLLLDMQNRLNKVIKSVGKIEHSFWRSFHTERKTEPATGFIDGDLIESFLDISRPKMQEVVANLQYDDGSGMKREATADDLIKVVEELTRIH

Row | inhibition at 0.04 µM [%] | inhibition at 0.2 µM [%] | SMILES
1 | 50 to 80 | 50 to 80 | CNc1ccc(C(=O)Nc2ccc(N(C)C)nn2)c(NC2CC3(C2)CN(C(=O)C(C)CN2CCN(c4ccc(Nc5ncc6c(C)c(C(C)=O)c(=O)n(C7CCCC7)c6n5)nc4)CC2)C3)n1 (centres unmarked) [CPD-117, 2-((2-(3-(4-(6-((6-Acetyl-8-cyclopentyl-5-methyl-7-oxo-7,8-dihydropyrido[2,3-d]pyrimidin-2-yl)amino)pyridin-3-yl)piperazin-1-yl)-2-methylpropanoyl)-2-azaspiro[3.3]heptan-6-yl)amino)-N-(6-(dimethylamino)pyridazin-3-yl)-6-(methylamino)nicotinamide]
2 | 50 to 80 | 50 to 80 | CNc1ccc(C(=O)Nc2ccc(N(C)C)nn2)c(NC2CC3(C2)CN(C(=O)C(C)(C)CN2CCN(c4ccc(Nc5ncc6c(C)c(C(C)=O)c(=O)n(C7CCCC7)c6n5)nc4)CC2)C3)n1 [CPD-118, 2-((2-(3-(4-(6-((6-Acetyl-8-cyclopentyl-5-methyl-7-oxo-7,8-dihydropyrido[2,3-d]pyrimidin-2-yl)amino)pyridin-3-yl)piperazin-1-yl)-2,2-dimethylpropanoyl)-2-azaspiro[3.3]heptan-6-yl)amino)-N-(6-(dimethylamino)pyridazin-3-yl)-6-(methylamino)nicotinamide]
3 | < 30 | 30 to 50 | CC(=O)c1c(C)c2cnc(Nc3ccc(N4CCN(CC(=O)NC5CC6(C5)CC(Nc5nc(C(C)C)ccc5C(=O)Nc5cccc(C7CC7)n5)C6)CC4)cn3)nc2n(C2CCCC2)c1=O (centres unmarked) [CPD-119, 2-((6-(2-(4-(6-((6-Acetyl-8-cyclopentyl-5-methyl-7-oxo-7,8-dihydropyrido[2,3-d]pyrimidin-2-yl)amino)pyridin-3-yl)piperazin-1-yl)acetamido)spiro[3.3]heptan-2-yl)amino)-N-(6-cyclopropylpyridin-2-yl)-6-isopropylnicotinamide]
4 | < 30 | 30 to 50 | CC(=O)c1c(C)c2cnc(Nc3ccc(N4CCN(CC(=O)NC5CC6(C5)CC(Nc5nc(C)ccc5C(=O)Nc5cccc(C7CC7)n5)C6)CC4)cn3)nc2n(C2CCCC2)c1=O (centres unmarked) [CPD-120, 2-((6-(2-(4-(6-((6-Acetyl-8-cyclopentyl-5-methyl-7-oxo-7,8-dihydropyrido[2,3-d]pyrimidin-2-yl)amino)pyridin-3-yl)piperazin-1-yl)acetamido)spiro[3.3]heptan-2-yl)amino)-N-(6-cyclopropylpyridin-2-yl)-6-methylnicotinamide]
5 | < 30 | 30 to 50 | CC(=O)c1c(C)c2cnc(Nc3ccc(N4CCN(CC(=O)NC5CC6(C5)CC(Nc5nc(C(F)(F)F)ccc5C(=O)Nc5cccc(C7CC7)n5)C6)CC4)cn3)nc2n(C2CCCC2)c1=O (centres unmarked) [CPD-121, 2-((6-(2-(4-(6-((6-Acetyl-8-cyclopentyl-5-methyl-7-oxo-7,8-dihydropyrido[2,3-d]pyrimidin-2-yl)amino)pyridin-3-yl)piperazin-1-yl)acetamido)spiro[3.3]heptan-2-yl)amino)-N-(6-cyclopropylpyridin-2-yl)-6-(trifluoromethyl)nicotinamide]
6 | 30 to 50 | 50 to 80 | CNc1ccc(C(=O)Nc2cccc(=O)[nH]2)c(NC2CC3(CC(NC(=O)CN4CCN(c5ccc(Nc6ncc7c(C)c(C(C)=O)c(=O)n(C8CCCC8)c7n6)nc5)CC4)C3)C2)n1 (centres unmarked) [CPD-122, 2-((6-(2-(4-(6-((6-Acetyl-8-cyclopentyl-5-methyl-7-oxo-7,8-dihydropyrido[2,3-d]pyrimidin-2-yl)amino)pyridin-3-yl)piperazin-1-yl)acetamido)spiro[3.3]heptan-2-yl)amino)-6-(methylamino)-N-(6-oxo-1,6-dihydropyridin-2-yl)nicotinamide]
7 | < 30 | 50 to 80 | CNc1ccc(C(=O)Nc2ccc(C)c(=O)[nH]2)c(NCCCCCNC(=O)CN2CCN(c3ccc(Nc4ncc5c(C)c(C(C)=O)c(=O)n(C6CCCC6)c5n4)nc3)CC2)n1 [CPD-123, 2-((5-(2-(4-(6-((6-Acetyl-8-cyclopentyl-5-methyl-7-oxo-7,8-dihydropyrido[2,3-d]pyrimidin-2-yl)amino)pyridin-3-yl)piperazin-1-yl)acetamido)pentyl)amino)-N-(5-methyl-6-oxo-1,6-dihydropyridin-2-yl)-6-(methylamino)nicotinamide]
8 | 30 to 50 | 30 to 50 | CCc1ccc(C(=O)Nc2cccc(C3CC3)n2)c(NC2CC3(CC(NC(=O)CN4CCN(c5ccc(Nc6ncc7c(C)c(C(C)=O)c(=O)n(C8CCCC8)c7n6)nc5)CC4)C3)C2)n1 (centres unmarked) [CPD-124, 2-((6-(2-(4-(6-((6-Acetyl-8-cyclopentyl-5-methyl-7-oxo-7,8-dihydropyrido[2,3-d]pyrimidin-2-yl)amino)pyridin-3-yl)piperazin-1-yl)acetamido)spiro[3.3]heptan-2-yl)amino)-N-(6-cyclopropylpyridin-2-yl)-6-ethylnicotinamide]
9 | 30 to 50 | 30 to 50 | CNc1ccc(C(=O)Nc2ccc(OC)c(C3CC3)n2)c(NC2CC3(CC(NC(=O)CN4CCN(c5ccc(Nc6ncc7c(C)c(C(C)=O)c(=O)n(C8CCCC8)c7n6)nc5)CC4)C3)C2)n1 (centres unmarked) [CPD-125, 2-((6-(2-(4-(6-((6-Acetyl-8-cyclopentyl-5-methyl-7-oxo-7,8-dihydropyrido[2,3-d]pyrimidin-2-yl)amino)pyridin-3-yl)piperazin-1-yl)acetamido)spiro[3.3]heptan-2-yl)amino)-N-(6-cyclopropyl-5-methoxypyridin-2-yl)-6-(methylamino)nicotinamide]
10 | < 30 | 50 to 80 | CNc1ccc(C(=O)Nc2cccc(C)n2)c(NC[C@H]2CC[C@H](NC(=O)CN3CCN(c4ccc(Nc5ncc6c(C)c(C(C)=O)c(=O)n(C7CCCC7)c6n5)nc4)CC3)CC2)n1 [CPD-126, 2-(((trans-4-(2-(4-(6-((6-Acetyl-8-cyclopentyl-5-methyl-7-oxo-7,8-dihydropyrido[2,3-d]pyrimidin-2-yl)amino)pyridin-3-yl)piperazin-1-yl)acetamido)cyclohexyl)methyl)amino)-6-(methylamino)-N-(6-methylpyridin-2-yl)nicotinamide]
11 | < 30 | < 30 | CNc1ccc(C(=O)Nc2cc(C(F)(F)F)n(C)n2)c(NC2CC3(CC(NC(=O)CN4CCN(c5ccc(Nc6ncc7c(C)c(C(C)=O)c(=O)n(C8CCCC8)c7n6)nc5)CC4)C3)C2)n1 (centres unmarked) [CPD-127, 2-((6-(2-(4-(6-((6-Acetyl-8-cyclopentyl-5-methyl-7-oxo-7,8-dihydropyrido[2,3-d]pyrimidin-2-yl)amino)pyridin-3-yl)piperazin-1-yl)acetamido)spiro[3.3]heptan-2-yl)amino)-N-(1-methyl-5-(trifluoromethyl)-1H-pyrazol-3-yl)-6-(methylamino)nicotinamide]
12 | 50 to 80 | 50 to 80 | CNc1ccc(C(=O)Nc2ccc(F)c(C3CC3)n2)c(NC2CC3(CC(NC(=O)CN4CCN(c5ccc(Nc6ncc7c(C)c(C(C)=O)c(=O)n(C8CCCC8)c7n6)nc5)CC4)C3)C2)n1 (centres unmarked) [CPD-128, 2-((6-(2-(4-(6-((6-Acetyl-8-cyclopentyl-5-methyl-7-oxo-7,8-dihydropyrido[2,3-d]pyrimidin-2-yl)amino)pyridin-3-yl)piperazin-1-yl)acetamido)spiro[3.3]heptan-2-yl)amino)-N-(6-cyclopropyl-5-fluoropyridin-2-yl)-6-(methylamino)nicotinamide]
13 | 50 to 80 | 50 to 80 | CNc1ccc(C(=O)Nc2ccc(N(C)C)nn2)c(NC2CCC(NC(=O)CN3CCN(c4ccc(Nc5ncc6c(C)c(C(C)=O)c(=O)n(C7CCCC7)c6n5)nc4)CC3)CC2)n1 (centres unmarked) [CPD-130, 2-((4-(2-(4-(6-((6-Acetyl-8-cyclopentyl-5-methyl-7-oxo-7,8-dihydropyrido[2,3-d]pyrimidin-2-yl)amino)pyridin-3-yl)piperazin-1-yl)acetamido)cyclohexyl)amino)-N-(6-(dimethylamino)pyridazin-3-yl)-6-(methylamino)nicotinamide]
14 | < 30 | 50 to 80 | CNc1ccc(C(=O)Nc2cc(C)n(C)n2)c(NC[C@H]2CC[C@H](NC(=O)CN3CCN(c4ccc(Nc5ncc6c(C)c(C(C)=O)c(=O)n(C7CCCC7)c6n5)nc4)CC3)CC2)n1 [CPD-131, 2-(((trans-4-(2-(4-(6-((6-Acetyl-8-cyclopentyl-5-methyl-7-oxo-7,8-dihydropyrido[2,3-d]pyrimidin-2-yl)amino)pyridin-3-yl)piperazin-1-yl)acetamido)cyclohexyl)methyl)amino)-N-(1,5-dimethyl-1H-pyrazol-3-yl)-6-(methylamino)nicotinamide]
15 | < 30 | 50 to 80 | CNc1ccc(C(=O)Nc2ccc(C#N)c(C3CC3)n2)c(NC2CC3(CC(NC(=O)CN4CCN(c5ccc(Nc6ncc7c(C)c(C(C)=O)c(=O)n(C8CCCC8)c7n6)nc5)CC4)C3)C2)n1 (centres unmarked) [CPD-132, 2-((6-(2-(4-(6-((6-Acetyl-8-cyclopentyl-5-methyl-7-oxo-7,8-dihydropyrido[2,3-d]pyrimidin-2-yl)amino)pyridin-3-yl)piperazin-1-yl)acetamido)spiro[3.3]heptan-2-yl)amino)-N-(5-cyano-6-cyclopropylpyridin-2-yl)-6-(methylamino)nicotinamide]
16 | 30 to 50 | 50 to 80 | CNc1ccc(C(=O)Nc2ccc(N(C)C)nn2)c(NC2CC3(C2)CN(C(=O)N2CCN(c4ccc(Nc5ncc6c(C)c(C(C)=O)c(=O)n(C7CCCC7)c6n5)nc4)CC2)C3)n1 [CPD-133, 2-((2-(4-(6-((6-Acetyl-8-cyclopentyl-5-methyl-7-oxo-7,8-dihydropyrido[2,3-d]pyrimidin-2-yl)amino)pyridin-3-yl)piperazine-1-carbonyl)-2-azaspiro[3.3]heptan-6-yl)amino)-N-(6-(dimethylamino)pyridazin-3-yl)-6-(methylamino)nicotinamide]
